Data on 20 compounds can be found in ChEMBL document CHEMBL5634077, “Recent advances in 1,2,3- and 1,2,4-triazole hybrids as antimicrobials and their SAR: A critical review” (2023).

One experiment relates to Klebsiella pneumoniae. As to the kind of experiment: Antimicrobial activity against Klebsiella pneumoniae assessed as diameter of inhibition zone incubated for 24 hrs by disc-diffusion method. Type of experiment: functional. On the technique in general: A growth-free zone around the sample is the usual read-out of agar diffusion tests.
Experiment [1] has as its system Staphylococcus aureus. Nature of the experiment: Antimicrobial activity against Staphylococcus aureus assessed as diameter of inhibition zone incubated for 24 hrs by disc-diffusion method. Type of experiment: functional.
In experiment [2] the test system is Escherichia coli. As to the kind of experiment: Antimicrobial activity against Escherichia coli assessed as diameter of inhibition zone incubated for 24 hrs by disc-diffusion method. In kind it is functional.
In experiment [3] the test system is Candida albicans. Nature of the experiment: Antimicrobial activity against Candida albicans assessed as diameter of inhibition zone incubated for 24 hrs by disc-diffusion method. Type of experiment: functional.
Experiment [4] has as its system Staphylococcus aureus. As to the kind of experiment: Antibacterial activity against methicillin resistant Staphylococcus aureus incubated for 20 hrs by broth microdilution method. In kind it is functional.
In experiment [5] the test system is Cryptococcus neoformans. As to the kind of experiment: Antifungal activity against Cryptococcus neoformans 32609 assessed as reduction in fungal growth incubated for 72 hrs by NCCLS based assay. In kind it is functional.
The next experiment has as its system Trichophyton rubrum. Nature of the experiment: Antifungal activity against Trichophyton rubrum assessed as reduction in fungal growth incubated for 5 to 7 days by NCCLS based assay. Type of experiment: functional. Conditions: time 5-7 day.
The subject of experiment [6] is Candida albicans. As to the kind of experiment: Antifungal activity against Candida albicans SC5314 assessed as reduction in fungal growth incubated for 24 hrs by NCCLS based assay. Type of experiment: functional.
Another experiment concerns Nannizzia gypsea. As to the kind of experiment: Antifungal activity against Microsporum gypseum assessed as reduction in fungal growth incubated for 5 to 7 days by NCCLS based assay. Type of experiment: functional. Conditions: time 5-7 day.
In experiment [7] the test system is Aspergillus fumigatus. Nature of the experiment: Antifungal activity against Aspergillus fumigatus 7544 assessed as reduction in fungal growth incubated for 5 to 7 days by NCCLS based assay. In kind it is functional. Conditions: time 5-7 day.
In experiment [8] the test system is Candida albicans. As to the kind of experiment: Antifungal activity against Candida albicans Y0109 assessed as reduction in fungal growth incubated for 24 hrs by NCCLS based assay. Type of experiment: functional.
Another experiment relates to Nakaseomyces glabratus. As to the kind of experiment: Antifungal activity against Candida glabrata 537 assessed as reduction in fungal growth incubated for 72 hrs by NCCLS based assay. Type of experiment: functional.
Experiment [9] deals with Staphylococcus aureus. Nature of the experiment: Antibacterial activity against Staphylococcus aureus assessed as diameter of inhibition zone. Type of experiment: functional.
The test system of experiment [10] is Candida albicans. Nature of the experiment: Antifungal activity against Candida albicans ATCC 90028 assessed as growth inhibition incubated for 24 hrs. Type of experiment: functional.
Experiment [11] deals with Pseudomonas aeruginosa. As to the kind of experiment: Antibacterial activity against Pseudomonas aeruginosa MTCC 1034 assessed as reduction in bacterial growth. In kind it is functional.
Experiment [12] deals with Bacillus subtilis. As to the kind of experiment: Antibacterial activity against Bacillus subtilis MTCC 441 assessed as reduction in bacterial growth. In kind it is functional.
The test system of experiment [13] is Escherichia coli. As to the kind of experiment: Antibacterial activity against Escherichia coli ATCC 8739 assessed as reduction in bacterial growth by micro-broth dilution method. Type of experiment: functional. On the technique in general: In broth dilution the organism is exposed to a series of concentrations in liquid medium.
Experiment [14] concerns Aspergillus fumigatus. Nature of the experiment: […] activity against Aspergillus fumigatus NCIM 2081 assessed as reduction in […] by micro-broth dilution method. In kind it is functional.
The subject of experiment [15] is Pseudomonas aeruginosa. As to the kind of experiment: Antibacterial activity against Pseudomonas aeruginosa MCCB 0035 assessed as reduction in bacterial growth by micro-broth dilution method. In kind it is functional.
Experiment [16] relates to Candida albicans. As to the kind of experiment: Antifungal activity against Candida albicans NCIM 2087 assessed as fungal growth inhibition. Type of experiment: functional.
The subject of experiment [17] is Staphylococcus aureus. Nature of the experiment: Antibacterial activity against Staphylococcus aureus ATCC 29213 assessed as reduction in bacterial growth by micro-broth dilution method. Type of experiment: functional.
For experiment [18], the system named is Aspergillus niger. Nature of the experiment: […] activity against Aspergillus niger NCIM 2191 assessed as reduction in […] by micro-broth dilution method. In kind it is functional.
Experiment [19] deals with Candida albicans. Nature of the experiment: Antifungal activity against Candida albicans assessed as fungal growth inhibition by CLSI based method. Type of experiment: functional.
Experiment [20] relates to Cryptococcus neoformans. Nature of the experiment: Antifungal activity against Cryptococcus neoformans assessed as fungal growth inhibition by CLSI based method. In kind it is functional.
Another experiment relates to Micrococcus luteus. As to the kind of experiment: Antibacterial activity against Micrococcus luteus IFC 12708 assessed as reduction in microbial growth. In kind it is functional.
Experiment [21] concerns Staphylococcus aureus. Nature of the experiment: Antibacterial activity against Staphylococcus aureus ATCC 6538p assessed as reduction in microbial growth. Type of experiment: functional.
A further experiment has as its system Proteus vulgaris. As to the kind of experiment: Antibacterial activity against Proteus vulgaris ATCC 3851 assessed as reduction in microbial growth. In kind it is functional.
For experiment [22], the system named is Escherichia coli. Nature of the experiment: Antibacterial activity against Escherichia coli ATCC 25922 assessed as reduction in microbial growth. In kind it is functional.
Experiment [23] deals with Bacillus subtilis. Nature of the experiment: Antibacterial activity against Bacillus subtilis ATCC 6633 assessed as reduction in microbial growth. In kind it is functional.
Another experiment concerns Salmonella typhimurium. As to the kind of experiment: Antibacterial activity against Salmonella typhimurium SL1344 assessed as reduction in microbial growth. Type of experiment: functional, Salmonella enterica subsp. enterica serovar Typhimurium. Conditions: Salmonella enterica.
Experiment [24] relates to Aspergillus niger. Nature of the experiment: Antifungal activity against Aspergillus niger assessed as fungal growth inhibition. Type of experiment: functional.

Converted amounts (≈) assume the structure as drawn.

With `Sc1nnc(-c2ccc(Cl)cc2)n1/N=C/c1ccco1`, the “diameter of the inhibition zone (DIZ)” value in the experiment with Klebsiella pneumoniae, with Staphylococcus aureus [1], with Escherichia coli [2] and with Candida albicans [3] was 4 mm each time.
One may read the MIC as the least concentration at which growth counts as inhibited. `COc1cc(/C=C/c2ccc(OCc3cn(-c4ccc(C(=O)O)cc4)nn3)cc2)cc(OC)c1` displayed an MIC against Staphylococcus aureus [4] of 1.2 mg/L (≈ 2.62 µM).
The MIC80 is an inhibitory concentration at the 80% level, which refers to growth in some studies and to a panel of isolates in others. On to `C[C@@H](OCc1cc(-c2c(F)cc(F)cc2F)no1)[C@](O)(Cn1cncn1)c1ccc(F)cc1F`, for which the MIC80 in the experiment with Cryptococcus neoformans [5] came to 1 mg/L (≈ 2.08 µM); in the experiment on Trichophyton rubrum, 2 mg/L (≈ 4.16 µM); in the experiment with Candida albicans [6] it was 0.125 mg/L (≈ 0.26 µM); in the experiment with Nannizzia gypsea it was 1 mg/L (≈ 2.08 µM); with Aspergillus fumigatus [7] it was 4 mg/L (≈ 8.33 µM); in the experiment with Candida albicans [8], 0.062 mg/L (≈ 0.129 µM). Further, the MIC80 in the experiment with Nakaseomyces glabratus was 0.125 mg/L (≈ 0.26 µM).
Consider `CCOc1cccc(-n2cc(C(C)N3C(=O)C(=O)c4ccccc43)nn2)c1` (configuration not stated), for which the “diameter of the inhibition zone (DIZ)” value in the experiment on Staphylococcus aureus [9] is recorded as 10 mm.
As to `CCCNC(=O)c1nnn(-c2ccc(Br)cc2)c1C`, the “growth inhibition (GI)” value in the experiment on Candida albicans [10] is reported as 13.2%.
In the case of `C=CCCC1CC(=O)N1Cc1cn(-c2ccc(Cl)cc2)nn1` (configuration not stated), the MIC in the experiment on Pseudomonas aeruginosa [11] and in the experiment with Bacillus subtilis [12] was 1.25 mg/L (≈ 3.95 µM) throughout.
Turning to `O=c1cc(-c2ccccc2)c2cc(Cl)ccc2n1Cc1nnc2n1N=C(c1ccccc1)CS2`, the MIC amounted to 2 mg/L (≈ 4.13 µM) with Escherichia coli [13]; 8 mg/L (≈ 16.5 µM) with Aspergillus fumigatus [14]; 4 mg/L (≈ 8.26 µM) with Pseudomonas aeruginosa [15]; 1 mg/L (≈ 2.07 µM) with Candida albicans [16]; 2 mg/L (≈ 4.13 µM) in the experiment with Staphylococcus aureus [17]; 2 mg/L (≈ 4.13 µM) in the experiment with Aspergillus niger [18].
For `COc1cc(/C=C/c2ccc(OCc3cn(CCCCCC(=O)O)nn3)cc2)cc(OC)c1`, the MIC against Staphylococcus aureus [4] was 78.1 mg/L (≈ 173 µM).
With `CCCCNC(=O)c1nnn(-c2ccc(Br)cc2)c1C`, the “growth inhibition (GI)” value in the experiment with Candida albicans [10] stood at 63.7%.
Consider `COc1cc(/C=C/c2ccc(OCc3cn(Cc4ccc(C(=O)O)cc4)nn3)cc2)cc(OC)c1`, for which the MIC in the experiment on Staphylococcus aureus [4] stood at 312 mg/L (≈ 663 µM).
`S=c1[nH]nc(-c2ccc(Cl)cc2Cl)n1/N=C/c1ccco1`: the “diameter of the inhibition zone (DIZ)” value with Klebsiella pneumoniae, in the experiment on Staphylococcus aureus [1], in the experiment with Escherichia coli [2] and in the experiment with Candida albicans [3] was 3 mm throughout.
`O=c1cc(-c2ccccc2)c2cc(Br)ccc2n1Cc1nnc2n1N=C(c1ccccc1)CS2`: the MIC in the experiment on Escherichia coli [13] is 2 mg/L (≈ 3.78 µM); in the experiment on Aspergillus fumigatus [14], 32 mg/L (≈ 60.6 µM); in the experiment on Pseudomonas aeruginosa [15], 4 mg/L (≈ 7.57 µM); in the experiment with Candida albicans [16] it was 2 mg/L (≈ 3.78 µM); in the experiment with Staphylococcus aureus [17] it was 1 mg/L (≈ 1.89 µM); in the experiment with Aspergillus niger [18], 4 mg/L (≈ 7.57 µM).
As for `O=C(c1ccc(Cl)cc1)C(C(c1ccccc1)c1ccccc1)n1cncn1` (configuration not stated), the MIC with Candida albicans [19] and with Cryptococcus neoformans [20] was 0.5 mg/L (≈ 1.29 µM) each time.
On to `O=C(c1ccc(Br)cc1)C(Cc1ccccc1)n1cncn1` (configuration not stated), for which the MIC in the experiment with Candida albicans [19] and in the experiment with Cryptococcus neoformans [20] was 0.5 mg/L (≈ 1.4 µM) throughout.
Regarding `O=C(c1ccc(F)cc1)C(C(c1ccccc1)c1ccccc1)n1cncn1` (configuration not stated), the MIC with Candida albicans [19] and with Cryptococcus neoformans [20] was 0.5 mg/L (≈ 1.35 µM) throughout.
In the case of `COc1ccc(N2C(=O)CSC2c2cn(-c3ccccc3)nc2-c2nnn(-c3ccccc3)c2C)cc1` (configuration not stated), the MIC with Micrococcus luteus, in the experiment on Staphylococcus aureus [21], in the experiment with Proteus vulgaris, in the experiment with Escherichia coli [22], with Bacillus subtilis [23] and with Salmonella typhimurium was 1.56 mg/L in each case.
Regarding `CCCCCCCCCCCCCCCc1nnc(S)n1/N=C\c1ccc([N+](=O)[O-])cc1`, in the experiment with Aspergillus niger [24], the MIC was found to be 27.1 mg/L (≈ 59 µM).
For the compound `C=CCCC1CC(=O)N1Cc1cn(-c2cccc([N+](=O)[O-])c2)nn1` (configuration not stated), the MIC with Pseudomonas aeruginosa [11] and in the experiment on Bacillus subtilis [12] was 1.25 mg/L (≈ 3.82 µM) throughout.
`Cc1c(-c2nn(-c3ccccc3)cc2C2SCC(=O)N2c2cc(F)ccc2F)nnn1-c1ccccc1` (configuration not stated): the MIC in the experiment on Micrococcus luteus, in the experiment on Staphylococcus aureus [21], with Proteus vulgaris, in the experiment with Escherichia coli [22], with Bacillus subtilis [23] and with Salmonella typhimurium was 1.56 mg/L each time.
For `CCCCNC(=O)c1nnn(-c2ccc(C)cc2)c1CCC`, in the experiment with Candida albicans [10], the “growth inhibition (GI)” value came to 21.2%.
